Reference: patent US10961176B2, “Compound hexadecaphlorethol isolated from Ishige okamurae and use thereof” (Jeju National University Industry-Academic Cooperation …, priority 2018, dated 2021)

What was measured:
[1] = tested on: alloxan-treated adult zebrafish; test: Blood glucose level in alloxan-treated adult zebrafish; format: in vivo
Experimental: Wild-type adult zebrafish were treated for 1 hour with 2 mg/ml alloxan and then for 1 hour with 1% glucose in the absence of insulin. Subsequently, the reaction solution was exchanged with water in which the zebrafish were then left for 1 hour before treatment with HdP, metformin, or BAPTA-AM for 90 min. Thus, the experiment groups included a non-treated group, an alloxan-treated group (control), a group treated with alloxan and HdP (0.3 μg/g body weight), a group treated with alloxan and metformin (5 μg/g body weight), a group treated with alloxan and BAPTA-AM (3 μg/g body weight), and a group treated with alloxan, BAPTA-AM (3 μg/g body weight), and HdP (0.3 μg/g body weight).

zebrafish embryos [2] = test: Intracellular calcium level in zebrafish embryo using Fluo-4; format: in vivo
Experimental: Intracellular calcium levels of zebrafish embryos were measured using a calcium-sensitive Fluo-4 probe. Embryos were incubated with Fluo-4 at 28.5±1° C. for 30 min before treatment with HdP (0.6, 3, and 6 μg/ml). In order to block the entry of calcium into cells, the embryos were reacted with the calcium chelator BAPTA-AM 0.1 mM for 1 hour before incubation with Fluo-4. The experiment groups included a non-treated group (N), a group treated with Fluo-4 alone (F), a group treated with HdP alone (0.6, 3, and 6 μg/ml), a group treated with Fluo-4 and HdP (0.6, 3, and 6 μg/ml), and a group treated with Fluo-4, BAPTA-AM, and HdP (6 μg/ml).

[3] = tested on: differentiated myoblast C2C12 cells; test: Glucose uptake of C2C12 cells, 2-NBDG flow cytometry (FACS); format: cell-based, mouse; conditions: treated with HdP for 24 hours, 2-NBDG fluorescence, dose-dependent
Experimental: The mouse-derived myoblast C2C12 cells (ATCC, Manassas, Va., USA) were suspended in DMEM (Dulbecco's Modified Eagle's Media) medium supplemented with 10% FBS and an antibiotic and cultured at 37° C. under a 5% CO2 atmosphere in an incubator. Upon 80% confluency, the C2C12 cells subjected to differentiation in a DMEM medium containing 2% horse serum and a low concentration of glucose for 5 days, with the medium freshly changed every three days. The differentiated cells were serum starved for 12 hours in serum free DMEM containing a low concentration of glucose, washed with PBS, and then reacted for 24 hours with the sample (HdP) in a fresh serum free DMEM.
Glucose uptake of mouse-derived myoblast C2C12 cells was measured using flow cytometry (FACS) according to the (2-(N-(7-nitrobenz-2oxa-1,3-diazol-4-yl)amino)-2-deoxyglucose (2-NBDG) assay method (Cell Death Dis. 2017 Oct. 5. 8 (10):e3078). The cultured cells were incubated with 10 μM 2-NBDG at 37° C. for 24 hours and then analyzed using BD FACS Cantoll (BD Biosciences, NJ, USA), with the fluorescence of 2-NBDG detected in a FITC channel.

yeast α-glucosidase = test: Inhibitory activity against α-glucosidase; format: biochemical; conditions: yeast enzyme, PNP-G substrate, pH 7.0, 37° C.; read-out: IC50 (concentration necessary for inhibiting the activity of α-glucosidase by 50%)
Experimental: Inhibitory activity against α-glucosidase was evaluated using a yeast enzyme according to the method of Watanabe et al. (Watanabe, Kawabata, Kurihara, & Niki, 1997). In the reaction condition of pH 7.0 and 37° C., 5 mM p-nitrophenyl α-D-glucopyranoside (PNP-G) serving as a substrate was reacted with a dilution of 32 mU/ml enzyme (yeast α-glucosidase, Sigma) in 100 mM phosphate buffer and inhibitory activity was measured using spectrophotometry. The sample was reacted with PNP-G for 5 min and the absorbance of 4-nitrophenol released upon the hydrolysis of PNP-G was read at 405 nm. Subsequently, the same amount of the substrate solution was added and reacted at room temperature for an additional five min., after which the reaction was stopped by adding 0.5 M Na2CO3. A change in absorbance at 405 nm was measured.
Inhibitory activity (%) against α-glucosidase was calculated according to the formula (1-absorbance of sample-added group/absorbance of solvent-added group)×100).
Acabose, which is an oral hypoglycemic agent inhibitory of α-glucosidase, was used as a positive control.

zebrafish embryos [4] = test: HdP toxicity in zebrafish embryo; format: in vivo; conditions: 1 μg/ml or less HdP, exposed until 168 hours after fertilization
Experimental: Four days after fertilization, each of the embryos (n=15) was transferred to 12-well plates, each containing 950 μl of an embryo medium (distilled water containing 60 ppm salt) and 50 μl of HdP (0.01, 0.1, 1, and 10 μg/ml) and the viability of zebrafish embryos exposed to HdP for 168 hours after fertilization were measured.

SMILES	blood glucose level ([1]; HdP 0.3 μg/g body weight, 90 min)	blood glucose level, HdP plus BAPTA-AM versus alloxan plus BAPTA-AM ([1]; HdP 0.3 μg/g with BAPTA-AM 3 μg/g body weight)	intracellular Ca2+ level (Fluo-4 phosphorescence) with calcium chelator BAPTA-AM (zebrafish embryos [2]; Fluo-4, BAPTA-AM 0.1 mM and HdP 6 μg/ml)	intracellular Ca2+ level (Fluo-4 phosphorescence) (zebrafish embryos [2]; HdP 0.6, 3 and 6 μg/ml with Fluo-4, versus group treated with Fluo-4 alone)	glucose uptake into differentiated C2C12 cells [3]	IC50 (yeast α-glucosidase)	survival rate of zebrafish embryos (zebrafish embryos [4])	blood glucose level (effect compared with HdP) ([1]; metformin 5 μg/g body weight, 90 min)
Oc1cc(O)cc(Oc2cc(O)c(Oc3c(O)cc(O)cc3Oc3cc(O)c(Oc4cc(O)cc(O)c4Oc4cc(O)cc(O)c4Oc4cc(O)cc(O)c4Oc4cc(O)c(Oc5c(O)cc(O)cc5Oc5c(O)cc(Oc6c(O)cc(Oc7c(O)cc(Oc8c(O)cc(Oc9c(O)cc(Oc%10c(O)cc(Oc%11c(O)cc(O)cc%11O)cc%10O)cc9O)cc8O)cc7O)cc6O)cc5O)c(O)c4)c(O)c3)c(O)c2)c1 [HdP, hexadecaphlorethol]	significantly reduced	No significant differences	phosphorescence decrease	significant increase	significantly increase	55 µM	≥ 90%	–
CN(C)C(=N)N=C(N)N [metformin, reference compound]	–	–	–	–	–	–	–	similar
